This is an account of results in patent US5780589A, “Ultraselective opioidmimetic peptides and pharmacological and therapeutic uses thereof” (The United States of America as represented by the …, priority 1994, dated 1998).

The target of test [1] is T1, δ opioid receptor (Rattus norvegicus, UniProt P33533).
T1 construct: Rat membrane synaptosome preparations (P2 fraction) were prepared as detailed previously; from tissue; host or cells: rat synaptosomal membranes (P2 fraction)
Description: δ receptor binding, rat membrane synaptosomes, [3H]DPDPE. Particulars: for Ki: [3H]DPDPE, rat synaptosomes (P2), mean ± SEM; for μ/δ (receptor selectivity): ratio Ki μ / Ki δ; for selectivity change on D-Tic substitution: δ→μ. Here is the method: (§1) Rat membrane synaptosome preparations (P2 fraction) were prepared as detailed previously, which included a preincubation step to reduce the presence of endogenous ligands and binding of G proteins (33,40). […] Samples were rapidly filtered through wetted glass fiber filters and thoroughly washed with 6 mL (3×2 mL) ice-cold 50 mM Tris-HCl, pH 7.5, containing 0.01-0.1% chicken egg albumin or bovine serum albumin. […] The filters were dried at 70° C. and the radioactivity determined after an overnight incubation period in CytoScint to maximize the radioactivity detected and reduce variability between samples. The IC50 values were converted to affinity constants (Ki) according to Cheng and Prusoff (48).

For test [2], the target named is T2, μ receptor (Rattus norvegicus, UniProt P33535).
T2 construct: Rat membrane synaptosome preparations (P2 fraction) were prepared as detailed previously; from tissue; host or cells: rat synaptosomal membranes (P2 fraction)
T2 sequence (P33535 whole entry): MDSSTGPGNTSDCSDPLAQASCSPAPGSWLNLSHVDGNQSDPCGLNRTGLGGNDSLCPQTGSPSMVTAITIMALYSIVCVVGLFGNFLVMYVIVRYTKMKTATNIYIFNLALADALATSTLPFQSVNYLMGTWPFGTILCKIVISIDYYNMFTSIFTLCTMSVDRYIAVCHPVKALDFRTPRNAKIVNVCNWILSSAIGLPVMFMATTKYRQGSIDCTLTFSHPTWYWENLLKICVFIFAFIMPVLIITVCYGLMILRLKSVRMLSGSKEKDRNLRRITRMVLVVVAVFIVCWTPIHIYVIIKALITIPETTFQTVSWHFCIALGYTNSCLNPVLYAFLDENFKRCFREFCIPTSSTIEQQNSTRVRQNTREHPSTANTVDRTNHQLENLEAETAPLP
Description: μ receptor binding, rat membrane synaptosomes, [3H]DAGO. Particulars: rat synaptosomes (P2), mean ± SEM. Here is the method: as §1

Test [3] concerns the target T1, δ opioid receptor. The following applies: data from Temussi et al. (39), cited from earlier work; for Ki: [3H]DPDPE; for μ/δ (receptor selectivity): ratio Ki μ / Ki δ.
Test [4] concerns the target T2, μ receptor. Particulars: [3H]DAGO; data from Temussi et al. (39); cited from earlier work.
The target in a further test is T3, δ receptor (Rattus norvegicus, UniProt P33533).
T3 construct: Rat membrane synaptosome preparations (P2 fraction) were prepared as detailed previously; from tissue; host or cells: rat synaptosomal membranes (P2 fraction)
T3 sequence (P33533 whole entry): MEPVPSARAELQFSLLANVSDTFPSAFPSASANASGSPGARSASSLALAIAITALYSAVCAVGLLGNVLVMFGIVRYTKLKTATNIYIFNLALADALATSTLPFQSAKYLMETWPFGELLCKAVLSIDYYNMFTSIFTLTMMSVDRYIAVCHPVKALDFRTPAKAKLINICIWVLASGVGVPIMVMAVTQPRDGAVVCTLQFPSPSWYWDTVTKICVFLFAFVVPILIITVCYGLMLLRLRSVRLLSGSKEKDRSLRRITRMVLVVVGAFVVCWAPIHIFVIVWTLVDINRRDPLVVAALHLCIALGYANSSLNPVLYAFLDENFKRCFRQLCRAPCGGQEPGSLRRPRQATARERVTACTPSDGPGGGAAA
Description: Multi-site (one- vs two-site) δ receptor binding analysis. The following applies: for Ki: Prism fit; for δ receptor binding model fitted: one-site vs two-site; for Percent low-affinity sites: two-site δ receptor fit. Here is the method: as §1
Multi-site binding analyses, based on stringent statistical methods, were performed as described in Bryant et al. (41) and Attila et al. (49). Receptor assays were conducted in triplicate with 25-35 graded concentrations of peptide; the resulting curves were both individually assessed and combined from several distinct assays, and analyzed using Prism™ (v. 1.02, GraphPad, San Diego, Calif.).

In the next test the target is δ receptors (Mus musculus, UniProt P32300). The following applies: for antagonist properties in MVD bioassay: in vitro mouse vas deferens. Here is the method:
(§2) The in vitro pharmacological assays were undertaken using published methods (32) based on the organ bath technique of Kosterlitz and Watt (50). For μ receptors, a 2-3 cm segment of guinea-pig ileum (GPI) mounted in a 20 mL organ bath and for δ receptors, a single mouse vas deferens (MVD) was obtained from a mature animal.

For another test, the target named is μ receptors (Cavia porcellus, UniProt P97266). The test can be described thus: Guinea-pig ileum (GPI) bioassay, electrically stimulated contractions. Here is the method:
as §2

[5] abbreviates: high affinity δ site, read-out: Ki (nM) High.
[6] abbreviates: concentration equivalent of pA2, against deltorphin C.
The mark [7] stands for this setting: low affinity δ site, read-out: Ki (nM) Low.
[8] abbreviates: guinea-pig ileum, read-out: GPI IC50.

Where two headings read alike, the source gives them in different places. Non-standard residues stand in square brackets, D forms with d. Residues, ends and D or L forms follow the SMILES beside them. No end group written: not given here. Dmt = Cc1cc(O)cc(C)c1C[C@H](N)C(=O)O; Tic = O=C(O)[C@@H]1Cc2ccccc2CN1; dTic = O=C(O)[C@H]1Cc2ccccc2CN1

Chain of δ receptors (P32300 whole entry): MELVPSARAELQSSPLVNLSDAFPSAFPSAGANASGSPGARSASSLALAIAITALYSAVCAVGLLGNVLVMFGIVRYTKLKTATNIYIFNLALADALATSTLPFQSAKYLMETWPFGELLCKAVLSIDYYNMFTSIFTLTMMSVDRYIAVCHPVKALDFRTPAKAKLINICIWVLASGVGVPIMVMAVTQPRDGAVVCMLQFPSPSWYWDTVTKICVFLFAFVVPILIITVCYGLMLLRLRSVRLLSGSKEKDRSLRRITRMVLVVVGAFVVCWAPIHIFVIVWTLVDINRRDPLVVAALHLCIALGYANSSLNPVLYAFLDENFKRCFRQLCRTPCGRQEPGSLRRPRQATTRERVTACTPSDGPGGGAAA
Chain of μ receptors (P97266 whole entry, looked up): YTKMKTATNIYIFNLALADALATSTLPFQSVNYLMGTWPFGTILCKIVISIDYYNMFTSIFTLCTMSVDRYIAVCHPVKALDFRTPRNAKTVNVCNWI
T1 sequence (P33533 whole entry): as the sequence (P33533 whole entry) above

Consider `N[C@@H](Cc1ccc(O)cc1)C(=O)N1Cc2ccccc2C[C@@H]1C(=O)O` [Peptide 14, Tyr-D-Tic-OH, reference compound] (H-Tyr-[dTic]-OH), for which, on δ opioid receptor [1], affinity was put at a Ki of 9050 nM and the “μ/δ (receptor selectivity)” value stood at 2.9. Further, on μ receptor [2], the affinity corresponds to a Ki of 26300 nM.
The matching figures for `Cc1cc(O)cc(C)c1C[C@H](N)C(=O)N1Cc2ccccc2C[C@@H]1C(=O)N[C@@H](C)C(N)=O` [Peptide 11, Dmt-D-Tic-Ala-NH2] (H-[Dmt]-[dTic]-Ala-NH2): 46.4 ± 2.7 nM, 0.13 and 5.8 ± 0.85 nM.
Regarding `NC(=O)[C@H]1Cc2ccccc2CN1C(=O)[C@@H](N)Cc1ccc(O)cc1` [Peptide 15, Tyr-D-Tic-NH2] (H-Tyr-[dTic]-NH2), the “selectivity change on D-Tic substitution” value at δ opioid receptor [1] is “reversal of selectivity”. At δ opioid receptor [3], the inhibition constant (Ki) was 5960 nM and the “μ/δ (receptor selectivity)” value was 0.53. For the same compound, the inhibition constant (Ki) at μ receptor [4] was 3130 nM.
For the compound `Cc1cc(O)cc(C)c1C[C@H](N)C(=O)N1Cc2ccccc2C[C@H]1C(N)=O` [Peptide 2, Dmt-Tic-NH2] (H-[Dmt]-[Tic]-NH2; N-terminus assumed), the inhibition constant (Ki) at δ opioid receptor [1] was 1.22 ± 0.09 nM. Besides, the Ki on δ receptor (setting [5]) stood at 1.06 nM. In addition, at δ receptor, the “δ receptor binding model fitted” value is recorded as “one-site binding model” and the Percent low-affinity sites was determined as 6.2 ± 40.1%. For the same compound, on δ receptors, the Kb is 63.1 nM and the “antagonist properties in MVD bioassay” value was “antagonist properties”. At δ receptors (setting [6]), the “MVD” value is on record as 4.2 nM. For the same compound, the half-maximal inhibitory concentration (IC50) on μ receptors was greater than 10000 nM.
As to `N[C@@H](Cc1ccc(O)cc1)C(=O)N1Cc2ccccc2C[C@H]1CO` [Peptide 16, Tyr-Tic-CH2 OH, reference compound], at δ opioid receptor [1], the Ki was determined as 128 ± 34.7 nM and the “μ/δ (receptor selectivity)” value worked out at 86. This compound returned a Ki on μ receptor [2] of 11000 nM.
Take Tyr-[Tic]-Ala-NH2 [Peptide 20]: at δ opioid receptor [3], the Ki is 55.5 ± 13.7 nM and the “μ/δ (receptor selectivity)” value is on record as 610. In addition, at μ receptor [4], the inhibition constant Ki is 33800 nM.
Regarding `Cc1cc(O)cc(C)c1C[C@H](N)C(=O)N1Cc2ccccc2C[C@H]1C(=O)N[C@@H](C)C(=O)O` [Peptide 8, Dmt-Tic-Ala-OH] (H-[Dmt]-[Tic]-Ala-OH), the Ki worked out at 0.285 ± 0.03 nM at δ opioid receptor [1], 5810 nM on μ receptor [2], 0.12 nM on δ receptor (setting [5]) and 4.8 nM on δ receptor (setting [7]). The “μ/δ (receptor selectivity)” value on δ opioid receptor [1] is 20,396. The Kb at δ receptors was 3.98 nM. Further, the 50% inhibitory concentration (IC50) at μ receptors (setting [8]) is greater than 10000 nM.
As for `C[C@H](NC(=O)[C@H]1Cc2ccccc2CN1C(=O)[C@@H](N)Cc1ccc(O)cc1)C(=O)O` [Peptide 21, Tyr-D-Tic-Ala-OH, reference compound] (H-Tyr-[dTic]-Ala-OH), at δ opioid receptor [1], affinity was put at a Ki of 2350 nM and the “μ/δ (receptor selectivity)” value worked out at 6. This compound also gave an inhibition constant Ki at μ receptor [2] of 14000 nM.
Turning to `O=C1N[C@@H](Cc2ccc(O)cc2)C(=O)N2Cc3ccccc3C[C@@H]12` [Peptide 17, c(Tyr-Tic), reference compound], on δ opioid receptor [1], the Ki worked out at 41800 nM and the “μ/δ (receptor selectivity)” value is listed as 1.2. The compound further gave a Ki on μ receptor [2] of 51500 nM.
As for `Cc1cc(O)cc(C)c1C[C@H](N)C(=O)N1Cc2ccccc2C[C@H]1C(=O)N[C@@H](C)C(N)=O` [Peptide 9, Dmt-Tic-Ala-NH2] (H-[Dmt]-[Tic]-Ala-NH2), the “μ/δ (receptor selectivity)” value on δ opioid receptor [1] came to 195. For the same compound, the inhibitory constant (Ki) on δ receptor (setting [5]) turned out to be 0.18 nM; on δ receptor (setting [7]), 10.7 nM. At μ receptors (setting [8]), the IC50 is 4740 ± 900 nM.
For `N[C@@H](Cc1ccc(O)cc1)C(=O)N1Cc2ccccc2C[C@H]1C(=O)O` [Peptide 12, Tyr-Tic-OH, reference compound] (H-Tyr-[Tic]-OH), on δ opioid receptor [1], the “μ/δ (receptor selectivity)” value is reported as 148.
At μ receptor [2], `Cc1cc(O)cc(C)c1C[C@H](N)C(=O)N1Cc2ccccc2C[C@@H]1C(=O)O` [Peptide 3, Dmt-D-Tic-OH] (H-[Dmt]-[dTic]-OH; N-terminus assumed) had a Ki of 224 ± 25.6 nM.
With `Oc1ccc2c3c1O[C@H]1c4[nH]c5ccccc5c4C[C@@]4(O)[C@@H](C2)N(CC2CC2)CC[C@]314` [Naltrindole, naltrindole, reference compound], on δ receptors (antagonism against deltorphin C as the agonist), the “MVD pA2” value was found to be 9.2. In addition, on δ receptors (setting [6]), the “MVD” value is 0.7 nM. In addition, at μ receptors (guinea-pig ileum), the “GPI nM (with pA2)” value stood at 53 nM and the “GPI pA2” value is 7.3.
Take `O=C1N[C@@H](Cc2ccc(O)cc2)C(=O)N2Cc3ccccc3C[C@H]12` [Peptide 18, c(Tyr-D-Tic), reference compound]: the Ki on δ opioid receptor [1] was 8910 nM; on μ receptor [2] it was 128000 nM. Further, the “μ/δ (receptor selectivity)” value at δ opioid receptor [1] is listed as 14.
Regarding `C[C@H](NC(=O)[C@H]1Cc2ccccc2CN1C(=O)[C@@H](N)Cc1ccc(O)cc1)C(N)=O` [Peptide 22, Tyr-D-Tic-Ala-NH2] (H-Tyr-[dTic]-Ala-NH2), the “selectivity change on D-Tic substitution” value on δ opioid receptor [1] is recorded as “reversal of selectivity”. For the same compound, the values for the Ki at δ opioid receptor [3] and at μ receptor [4] were 21100 nM and 8150 nM, respectively. Further, the “μ/δ (receptor selectivity)” value on δ opioid receptor [3] is listed as 0.39.
Regarding `Cc1cc(O)cc(C)c1C[C@H](N)C(=O)N1Cc2ccccc2C[C@H]1CO` [Peptide 5, Dmt-Tic--CH2 OH], on δ opioid receptor [1], the affinity corresponds to a Ki of 0.44 ± 0.14 nM and the “μ/δ (receptor selectivity)” value is 344. This compound also came in with a Ki on μ receptor [2] of 151 ± 16.3 nM. For the same compound, on δ receptor (setting [5]), the Ki was 0.13 nM. Further, the Ki at δ receptor (setting [7]) is 5.2 nM. Also, on δ receptor, the “δ receptor binding model fitted” value is recorded as “two-site model” and the Percent low-affinity sites is 20.9 ± 5.3%. Besides, at δ receptors, the Kb was 100 nM and the “antagonist properties in MVD bioassay” value was “antagonist properties”. The “MVD” value at δ receptors (setting [6]) was determined as 6.6 nM. In addition, at μ receptors, the 50% inhibitory concentration (IC50) was greater than 10000 nM.
Consider `Cc1cc(O)cc(C)c1C[C@H](N)C(=O)N1Cc2ccccc2C[C@@H]1C(N)=O` [Peptide 4, Dmt-D-Tic-NH2] (H-[Dmt]-[dTic]-NH2; N-terminus assumed), for which the Ki at δ opioid receptor [1] turned out to be 56.9 ± 2.9 nM.
Consider Tyr-[Tic]-Ala-OH [Peptide 19], for which, on δ opioid receptor [3], the inhibition constant (Ki) was 56.1 ± 10.3 nM and the “μ/δ (receptor selectivity)” value is given as 148. Besides, on μ receptor [4], the inhibition constant (Ki) was 8290 nM.
Consider `Cc1cc(O)cc(C)c1C[C@@H]1NC(=O)[C@H]2Cc3ccccc3CN2C1=O` [Peptide 7, c(Dmt-D-Tic)], for which, on δ opioid receptor [1], the Ki amounted to 499 ± 117 nM and the “μ/δ (receptor selectivity)” value is recorded as 1.5. This compound gave a Ki at μ receptor [2] of 728 ± 72.9 nM.
The like results for `Cc1cc(O)cc(C)c1C[C@H](N)C(=O)N1Cc2ccccc2C[C@@H]1C(=O)N[C@@H](C)C(=O)O` [Peptide 10, Dmt-D-Tic-Ala-OH] (H-[Dmt]-[dTic]-Ala-OH) were, in that order, 88.7 ± 13.8 nM, 0.93 and 82.8 ± 2 nM.
`Cc1cc(O)cc(C)c1C[C@@H]1NC(=O)[C@@H]2Cc3ccccc3CN2C1=O` [Peptide 6, c(Dmt-Tic)]: the “μ/δ (receptor selectivity)” value on δ opioid receptor [1] is on record as 66. In addition, the “fold higher δ affinity relative to Tyr-Tic cognate” value on δ opioid receptor [1] (vs Tyr-Tic-OH (peptide 12) or c(Tyr-Tic) (peptide 17)) was 4,000 fold. This compound also displayed a Ki at μ receptor [2] of 635 ± 69.3 nM. Besides, the inhibition constant Ki on δ receptor (setting [5]) was determined as 0.09 nM. For the same compound, on δ receptor (setting [7]), the Ki came out at 9.4 nM. Besides, on δ receptor, the “δ receptor binding model fitted” value was “two-site model” and the Percent low-affinity sites is 86.8 ± 3.9%. On δ receptors, the Kb is 3720 nM and the “antagonist properties in MVD bioassay” value is recorded as “antagonist properties”. Besides, the “MVD nM” value on δ receptors (setting [6]) is on record as 3,800 nM. In addition, at μ receptors, the IC50 was determined as 20000 ± 2000 nM.
Tyr-Tic-NH2 [Peptide 13]: at δ opioid receptor [3], the Ki was 166 ± 48.1 nM and the “μ/δ (receptor selectivity)” value is reported as 173. Moreover, the Ki at μ receptor [4] is 28700 nM.
